#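 How tested: cells in 96-well plates exposed to compound for 48 hours at five concentrations. Abbreviation: GI50, concentration required for 50% inhibition of growth. TGI is the concentration that stops growth completely.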
# Assays:
# Assay in all cases: NCI tumour cell line growth inhibition, 48 h
# SK-OV-3 ovarian = tested on: SK-OV-3 ovarian
# DMS 114 small cell lung = tested on: DMS 114 small cell lung
# SF-268 CNS = tested on: SF-268 CNS
# SK-MEL-28 melanoma = tested on: SK-MEL-28 melanoma
# HCC-2998 colon = tested on: HCC-2998 colon
# NCI-H23 lung = tested on: NCI-H23 lung
# DLD-1 colon = tested on: DLD-1 colon
# UO-31 renal = tested on: UO-31 renal
# OVCAR-5 ovarian = tested on: OVCAR-5 ovarian
# SK-MEL-2 melanoma = tested on: SK-MEL-2 melanoma
# M19-MEL melanoma = tested on: M19-MEL melanoma
# P388 leukemia = tested on: P388 leukemia
# A549 NSCLC = tested on: A549 NSCLC
# CCRF-CEM leukemia = tested on: CCRF-CEM leukemia
# RXF 393 renal = tested on: RXF 393 renal
# HOP-92 NSCLC = tested on: HOP-92 NSCLC
# MCF7 breast = tested on: MCF7 breast
# OVCAR-4 ovarian = tested on: OVCAR-4 ovarian
# SN12C renal = tested on: SN12C renal
# MOLT-4 leukemia = tested on: MOLT-4 leukemia
# OVCAR-8 ovarian = tested on: OVCAR-8 ovarian
# SW-620 colon = tested on: SW-620 colon
# NCI-H522 lung = tested on: NCI-H522 lung
# UACC-257 melanoma = tested on: UACC-257 melanoma
# KM20L2 colon = tested on: KM20L2 colon
# NCI-H226 lung = tested on: NCI-H226 lung
# EKVX NSCLC = tested on: EKVX NSCLC
# XF 498 CNS = tested on: XF 498 CNS
# SF-295 CNS = tested on: SF-295 CNS
# NCI/ADR-RES ovarian = tested on: NCI/ADR-RES ovarian
# CAKI-1 renal = tested on: CAKI-1 renal
# COLO 205 colon = tested on: COLO 205 colon
# A498 renal = tested on: A498 renal
# SNB-19 CNS = tested on: SNB-19 CNS
# HT29 colon = tested on: HT29 colon
# HCT-15 colon = tested on: HCT-15 colon
# SNB-75 CNS = tested on: SNB-75 CNS
# HOP-18 NSCLC = tested on: HOP-18 NSCLC
# HL-60(TB) leukemia = tested on: HL-60(TB) leukemia
# UACC-62 melanoma = tested on: UACC-62 melanoma
# DMS 273 small cell lung = tested on: DMS 273 small cell lung
# KM12 colon = tested on: KM12 colon
# SNB-78 CNS = tested on: SNB-78 CNS
# U251 CNS = tested on: U251 CNS
# NCI-H460 lung = tested on: NCI-H460 lung
# HOP-62 NSCLC = tested on: HOP-62 NSCLC
# HCT-116 colon = tested on: HCT-116 colon
# OVCAR-3 ovarian = tested on: OVCAR-3 ovarian
# SK-MEL-5 melanoma = tested on: SK-MEL-5 melanoma
# RPMI-8226 leukemia = tested on: RPMI-8226 leukemia
# LOX IMVI melanoma = tested on: LOX IMVI melanoma
# P388/ADR leukemia = tested on: P388/ADR leukemia
# MALME-3M melanoma = tested on: MALME-3M melanoma
# IGROV1 ovarian = tested on: IGROV1 ovarian
# K-562 leukemia = tested on: K-562 leukemia
# SN12K1 renal = tested on: SN12K1 renal
# SF-539 CNS = tested on: SF-539 CNS
# TK-10 renal = tested on: TK-10 renal
# 786-0 renal = tested on: 786-0 renal
# ACHN renal = tested on: ACHN renal
# M14 melanoma = tested on: M14 melanoma
# RXF-631 renal = tested on: RXF-631 renal
# LXFL 529 NSCLC = tested on: LXFL 529 NSCLC
# SR leukemia = tested on: SR leukemia
compound,measurement,setting,value
Cc1nc2ccccc2c(=O)n1Nc1ccc(C(=O)O)cc1,TGI,SK-OV-3 ovarian,> 100 µM
same,TGI,DMS 114 small cell lung,> 100 µM
same,TGI,SF-268 CNS,> 100 µM
same,TGI,SK-MEL-28 melanoma,> 100 µM
same,TGI,HCC-2998 colon,> 100 µM
same,TGI,NCI-H23 lung,> 100 µM
same,TGI,DLD-1 colon,> 100 µM
same,TGI,UO-31 renal,> 100 µM
same,TGI,OVCAR-5 ovarian,> 100 µM
same,TGI,SK-MEL-2 melanoma,> 100 µM
same,TGI,M19-MEL melanoma,> 100 µM
same,TGI,P388 leukemia,> 100 µM
same,TGI,A549 NSCLC,> 100 µM
same,TGI,CCRF-CEM leukemia,> 100 µM
same,TGI,RXF 393 renal,> 100 µM
same,TGI,HOP-92 NSCLC,> 100 µM
same,TGI,MCF7 breast,> 100 µM
same,TGI,OVCAR-4 ovarian,> 100 µM
same,TGI,SN12C renal,> 100 µM
same,TGI,MOLT-4 leukemia,> 100 µM
same,TGI,OVCAR-8 ovarian,> 100 µM
same,TGI,SW-620 colon,> 100 µM
same,TGI,NCI-H522 lung,> 100 µM
same,TGI,UACC-257 melanoma,> 100 µM
same,TGI,KM20L2 colon,> 100 µM
same,TGI,NCI-H226 lung,> 100 µM
same,TGI,EKVX NSCLC,> 100 µM
same,TGI,XF 498 CNS,> 100 µM
same,TGI,SF-295 CNS,> 100 µM
same,TGI,NCI/ADR-RES ovarian,> 100 µM
same,TGI,CAKI-1 renal,> 100 µM
same,TGI,COLO 205 colon,> 100 µM
same,TGI,A498 renal,> 100 µM
same,TGI,SNB-19 CNS,> 100 µM
same,TGI,HT29 colon,> 100 µM
same,TGI,HCT-15 colon,> 100 µM
same,TGI,SNB-75 CNS,> 100 µM
same,TGI,HOP-18 NSCLC,> 100 µM
same,TGI,HL-60(TB) leukemia,> 100 µM
same,TGI,UACC-62 melanoma,> 100 µM
same,TGI,DMS 273 small cell lung,> 100 µM
same,TGI,KM12 colon,> 100 µM
same,TGI,SNB-78 CNS,> 100 µM
same,TGI,U251 CNS,> 100 µM
same,TGI,NCI-H460 lung,> 100 µM
same,TGI,HOP-62 NSCLC,> 100 µM
same,TGI,HCT-116 colon,> 100 µM
same,TGI,OVCAR-3 ovarian,> 100 µM
same,TGI,SK-MEL-5 melanoma,> 100 µM
same,TGI,RPMI-8226 leukemia,> 100 µM
same,TGI,LOX IMVI melanoma,> 100 µM
same,TGI,P388/ADR leukemia,> 100 µM
same,TGI,MALME-3M melanoma,> 100 µM
same,TGI,IGROV1 ovarian,> 100 µM
same,TGI,K-562 leukemia,> 100 µM
same,TGI,SN12K1 renal,> 100 µM
same,TGI,SF-539 CNS,> 100 µM
CN(C)C=O.CN(C)C=O.CN1C(C(=O)Nc2ccccn2)=C([O-])c2ccccc2S1(=O)=O.CN1C(C(=O)Nc2ccccn2)=C([O-])c2ccccc2S1(=O)=O.[Cu+2],TGI,SK-OV-3 ovarian,45.8 µM
same,GI50,DMS 114 small cell lung,32.2 µM
same,TGI,DMS 114 small cell lung,> 100 µM
same,TGI,TK-10 renal,> 100 µM
same,TGI,SF-268 CNS,> 100 µM
same,TGI,SK-MEL-28 melanoma,> 100 µM
same,GI50,HCC-2998 colon,> 100 µM
same,TGI,HCC-2998 colon,> 100 µM
same,TGI,NCI-H23 lung,57 µM
same,TGI,786-0 renal,> 100 µM
same,TGI,ACHN renal,> 100 µM
same,TGI,UO-31 renal,> 100 µM
same,TGI,M14 melanoma,> 100 µM
same,TGI,OVCAR-5 ovarian,> 100 µM
same,TGI,SK-MEL-2 melanoma,> 100 µM
same,GI50,M19-MEL melanoma,31 µM
same,TGI,M19-MEL melanoma,> 100 µM
same,GI50,RXF-631 renal,87.4 µM
same,TGI,RXF-631 renal,> 100 µM
same,TGI,A549 NSCLC,> 100 µM
same,TGI,RXF 393 renal,61.7 µM
same,GI50,HOP-92 NSCLC,22.1 µM
same,TGI,HOP-92 NSCLC,51.1 µM
same,TGI,OVCAR-4 ovarian,78.7 µM
same,TGI,SN12C renal,> 100 µM
same,TGI,OVCAR-8 ovarian,> 100 µM
same,TGI,SW-620 colon,> 100 µM
same,GI50,LXFL 529 NSCLC,27.8 µM
same,TGI,LXFL 529 NSCLC,> 100 µM
same,TGI,NCI-H522 lung,> 100 µM
same,TGI,UACC-257 melanoma,> 100 µM
same,GI50,KM20L2 colon,> 100 µM
same,TGI,KM20L2 colon,> 100 µM
same,TGI,EKVX NSCLC,> 100 µM
same,TGI,SR leukemia,> 100 µM
same,GI50,XF 498 CNS,18.8 µM
same,TGI,XF 498 CNS,34.4 µM
same,TGI,SF-295 CNS,> 100 µM
same,TGI,COLO 205 colon,> 100 µM
same,GI50,A498 renal,24.2 µM
same,TGI,A498 renal,65.3 µM
same,TGI,SNB-19 CNS,41.2 µM
same,TGI,HT29 colon,> 100 µM
same,TGI,HCT-15 colon,> 100 µM
same,TGI,SNB-75 CNS,49.5 µM
same,GI50,HOP-18 NSCLC,> 100 µM
same,TGI,HOP-18 NSCLC,> 100 µM
same,TGI,HL-60(TB) leukemia,> 100 µM
same,TGI,UACC-62 melanoma,41.2 µM
same,GI50,DMS 273 small cell lung,35.9 µM
same,TGI,DMS 273 small cell lung,> 100 µM
same,TGI,KM12 colon,> 100 µM
same,GI50,SNB-78 CNS,64.3 µM
same,TGI,SNB-78 CNS,> 100 µM
same,TGI,U251 CNS,> 100 µM
same,GI50,NCI-H460 lung,32.5 µM
same,TGI,NCI-H460 lung,> 100 µM
same,TGI,HOP-62 NSCLC,78.8 µM
same,TGI,HCT-116 colon,> 100 µM
same,TGI,OVCAR-3 ovarian,> 100 µM
same,TGI,SK-MEL-5 melanoma,36.8 µM
same,TGI,RPMI-8226 leukemia,> 100 µM
same,TGI,LOX IMVI melanoma,> 100 µM
same,TGI,MALME-3M melanoma,> 100 µM
same,GI50,IGROV1 ovarian,36.3 µM
same,TGI,IGROV1 ovarian,> 100 µM
same,GI50,K-562 leukemia,> 100 µM
same,TGI,K-562 leukemia,> 100 µM
same,TGI,SF-539 CNS,> 100 µM
